Assay results published in EP3034610A1, “NOVEL TERPENOID COMPOUND AND METHOD FOR PRODUCING SAME” (The Kitasato Institute, priority 2013, dated 2015).

What was measured:
Type in all cases: cell-based
Conditions in all cases: 72 h treatment, OD 540 nm, tested 5-100 µg/mL
SKOV (ovarian cancer) = experiment: Cytotoxicity, MTT assay (viability), SKOV
[1] = system: Jurkat (T-cell lymphoblastic leukemia); experiment: Cytotoxicity, MTT assay (viability), Jurkat
Mycobacterium smegmatis = experiment: Cytotoxicity, MTT assay (viability), Mycobacterium smegmatis

Compound | IC50 (SKOV (ovarian cancer)) | IC50 [1] | IC50 (Mycobacterium smegmatis)
C=C(CCC=C(C)C)[C@@H]1CC[C@@]2(C)CCCC(C)=C2C1 [clavulatriene A] | not active | IC50 = 5.63 µg/ml. | not active
tetramethylhexadecahydropyrenol | IC50 = 35.38 µ g/ml | IC50 = 29. 35 µ g/ml µg/ml | IC50 = 49.78 µg/ml
trimethyl-methylenehexadecahydropyrene | not active | not active | IC50 = 50.08 µg/ml
